Values joined by “and” are separate entries in the source; they are usually repeats but may differ in a detail not shown here. Equal values may be shown once. “Also recorded” adds a separate entry of the source. Read-outs that look alike come from different tables or passages of the source.
Experiments:
[1] = system: Salmonella typhimurium tester strains; assay: Ames Salmonella dark mutagenicity test, overall assessment; assay type: cell-based; details: two-fold or greater increase in revertants above background and dose dependence
Method: A brief description for each procedure is given here. […] TA97a, TA98, TA1537 and TA1538 are frameshift tester strains. TA100 and TA102 are base-substitution tester strains.
This served as the background controls.
For all experiments, the pre-incubation procedure was used.

[2] = system: Salmonella tester strain TA1537; assay: Ames test, strain TA1537
Method: In this example the compounds of the present invention are tested for their dark mutagenicity using an Ames assay. The procedures used for the Salmonella mutagenicity test as described in detail by Maron and Ames were followed exactly. Maron, D. M. and B. N. Ames, Mutation Research 113: 173 ( 1983). A brief description for each procedure is given here. The tester strains TA97a, TA98, TA100, TA102, TA1537 and TA1538 were obtained from Dr. Ames. TA97a, TA98, TA1537 and TA1538 are frameshift tester strains. TA100 and TA102 are base-substitution tester strains. Upon receipt each strain was cultured under a variety of conditions to confirm the genotypes specific to the strains.
The first tests done with the strains were to determine the range of spontaneous reversion for each of the strains. With each mutagenicity experiment the spontaneous reversion of the tester strains to histidine independence was measured and expressed as the number of spontaneous revertants per plate. This served as the background controls.
For all experiments, the pre-incubation procedure was used. In this procedure one vial of each tester strain was thawed and 20 μL of this culture was added to 6 mL of Oxoid Nutrient Broth #2. This solution was allowed to shake for 10 hours at 37° C. In the pre-incubation procedure, 0.1 mL of this overnight culture was added to each of the required number of sterile test tubes. To half of the tubes 0.5 mL of a 10% S-9 solution containing Aroclor 1254 induced rat liver extract (Molecular Toxicology Inc., Annapolis, Md.), and MgCl2, KCl, glucose-6-phosphate, NADP, and sodium phosphate buffer (Sigma, St. Louis, Mo.) were added. To the other half of the tubes 0.5 mL of 0.2M sodium phospate buffer, pH 7.4, was used in place of the S-9 mixture (the—S9samples). Finally 0.1 mL of the test solution containing either 0, 0.1, 0.5, 1, 5, 10, 50, 100, 250, or 500 μg/mL of the test compound was added. The 0.7 mL mixture was vortexed and then pre-incubated while shaking for 20 minutes at 37° C. After shaking, 2 mL of molten top agar supplemented with histidine and biotin were added to the 0.7 mL mixture and immediately poured onto a minimal glucose agar plate (volume of base agar was 20 mL). The top agar was allowed 30 minutes to solidify and then the plates were inverted and incubated for 44 hours at 37° C. After incubation the number of revertant colonies on each plate were counted. […] (“n” represents the number of replicates performed for each data point.)

p-selectin (GMP140) = assay: GMP-140 (p-selectin) expression on platelets, flow cytometry with CD62; assay type: cell-based, human; details: 100 μM compound, 5 Joules/cm^2, 5 days storage; FIGS. 21C-24C
Method: To measure the effects of the present compounds and methods of decontamination on platelet function using these four indicators, four samples were prepared for each compound tested, two control samples and two containing compound. Three units of human platelets were obtained from the Sacramento Blood Center, Sacramento, Calif. These were each transferred under sterile conditions to 50 ml centrifuge tubes, then aliquots of each unit were transferred into a second set of 50 ml sterile centrifuge tubes. To each centrifuge tube containing platelet concentrate (PC), an aliquot of compound stock was added to reach a final concentration of 100 μM of compound. […] The samples were pipetted gently up and down to mix. Then aliquots (either 3 ml or 8 ml) of each sample was transferred to two sterile Teflon™ Medi-bags™ (American Fluoroseal Co., Silver Springs, Md.) (presently owned by The West Company, Lionville, Pa.). Samples were treated in one of two different sized bags, having either 3 ml or 8 ml capacity. […] For each compound tested, two control samples without compound were prepared by again removing aliquots of platelet concentrate (17 ml if using an 8 ml bag, […] if using a 3 ml bag) from the same one of the first set of 50 ml centrifuge tubes from which the compound sample was drawn, and dividing into Medibags, as before. One of each pair of Medibags containing a compound, and one of each pair of control Medibags, were illuminated for 5 Joules/cm^2 on the device described in Example 1, above. Then all experimental and control Medibags were placed on a platelet shaker for storage for 5 days. The same experiments were repeated several times to obtain more statistically meaningful data, as represented by “n”, the number of data points represented, in the graphs of FIGS. 21-24, discussed below.

mouse reticulocytes = details: for bone marrow toxicity and micronucleus formation on dose escalation (in words): increased dose levels in male Balb/c mice; for PCE/RBC (%): tail vein, once per day for four days, blood on day 5
Method: Male Balb/c mice were then injected with 0.1 ml of a compound solution via the tail vein. At least 3 mice were injected per dose level. Saline only was used as a negative control. For a positive control, cyclophosphamide (cycloPP) was administered at a dose of 30 mg/kg. In the experimental group, the injections were repeated once per day for four days. In the positive control group, the sample was administered only once, on day three. On day 5, several microliters of blood were withdrawn from each subject and smeared on a glass slide. Cells were fixed in absolute methanol and stored in a slide rack.
For analysis, cells were stained with acridine orange and visualized under a fluorescence microscope by counting: (i) the number of reticulocytes per 5000 erythrocytes; and (ii) the number of micronucleated reticulocytes per 1000 reticulocytes. Reticulocytes were distinguished by their red fluorescence due to the presence of RNA. Micronuclei were distinguished by their green fluorescence due to the presence of DNA. The percentage of reticulocytes (%PCE) was then calculated. A decrease in the frequency of […] in the percentage of reticulocytes, is an indication of bone marrow toxicity. The percentage of reticulocytes with micronuclei (%PCE with MN) was also calculated. An increase in %PCE with MN is a measure of clastogenicity.
After initial results were determined, the experiment was repeated using increased dose levels, until: (i) Micronucleus formation was seen; or (ii) Bone marrow toxicity was observed; or (iii) The lethal dose was reached; or (iv) A dose of 5 g/kg was administered.

HIV-1 = details: for HIV Log Kill: 1 minute irradiation
Method: As in the R17 assay, small aliquots of the compounds listed in TABLES 10 and 11, below, at the concentrations listed in the table, were added to stock HIV-1 to a total of 0.5 mL. The stock HIV (10^5−10^7 plaque forming units/mL) was in DMEM15% FBS. […] Controls included HIV-1 stock only, HIV-1 plus UVA only, and HIV-1 plus the highest concentration of each psoralen tested, with no UVA. Post irradiation, all samples were store frozen at −70° C. until assayed for infectivity by a microtiter plaque assay. Aliquots for measurement of residual HIV infectivity in the samples treated with a compound of the present invention were withdrawn and cultured.
Residual HIV infectivity was assayed using an MT-2 infectivity assay. […] The assay medium was 85% DMEM (with a high glucose concentration) containing 100 μg of streptomycin, 100 U of penicillin, 50 μg of gentamicin, and 1 μg of amphotericin B per mL, 15% FBS and 2 μg of Polybrene (Sigma Chemical Co., St. Louis, Mo.) per mL. Test and control samples from the inactivation procedure were diluted in 50% assay medium and 50% normal human pooled plasma The samples were serially diluted directly in 96-well plates (Corning Glass Works, Corning, N.Y.). The plates were mixed on an oscillatory shaker for 30 seconds and incubated at 37° C. in a 5% CO2 atmosphere for 1 to 18 hours. […] After an additional 1 hour of incubation at 37° C. in 5% CO2, 0.075 mL of assay medium containing 1.6% SeaPlaque agarose (FMC Bioproducts, Rockland, Me.) and prewarmed to 38.5° C. was added to each well. The plates were kept at 37° C. for a few minutes until several plates had accumulated and then centrifuged in plate carriers at 600×g for 20 minutes in a centrifuge precooled to 10° C. In the centrifuge, cell monolayers formed prior to gelling of the agarose layer. The plates were incubated for 5 days at 37° C. in 5% CO2 and stained by the addition of 0.05 mL of 50 μg/mL propidium iodide (Sigma Chemical Co.) in phosphate-buffered saline (pH 7.4) to each well. After 24 to 48 hours, the red fluorescence-stained microplaques were visualized by placing the plates on an 8,000 μW/cm^2304 nm UV light box (Fotodyne, Inc., New Berlin, Wis.). The plaques were counted at a magnification of x20 to x25 through a stereomicroscope.

[3] = 16 μM, starting titer approximately 5 logs (Table 10)
[4] = 32 μM, starting titer approximately 5 logs (Table 10)
[5] = 64 μM, starting titer approximately 5 logs (Table 10)
[6] = 16 μM, starting titer approximately 5.4 logs (Table 11)
[7] = 32 μM, starting titer approximately 5.4 logs (Table 11)
[8] = 64 μM, starting titer approximately 5.4 logs (Table 11)

Cc1oc2c(C)c3oc(=O)cc(C)c3cc2c1COCCN [Compound 2, 4′-(4-amino-2-oxa)butyl-4,5′,8-trimethylpsoralen]
mutagenic response in the Ames assay (in words) [1]: weak frameshift mutagenicity in the presence of S9 in TA98 and TA1537 | revertant colonies per plate ([2]; TA1537 + S9, 10 μg/plate): 5 | revertant colonies per plate ([2]; TA1537 + S9, 50 μg/plate): 40 | revertant colonies per plate ([2]; TA1537 + S9, 100 μg/plate): 88 | revertant colonies per plate ([2]; TA1537 + S9, 250 μg/plate): 744 | revertant colonies per plate ([2]; TA1537 + S9, 500 μg/plate): 395 | revertant colonies per plate ([2]; TA1537 − S9, 10 μg/plate): 36 | revertant colonies per plate ([2]; TA1537 − S9, 50 μg/plate): 282 | revertant colonies per plate ([2]; TA1537 − S9, 100 μg/plate): 258 | revertant colonies per plate ([2]; TA1537 − S9, 250 μg/plate): 176 | revertant colonies per plate ([2]; TA1537 − S9, 500 μg/plate): 114 | GMP-140 expression, treated sample (PCD) against day 5 untreated control (in words) (p-selectin (GMP140)): little or no difference | bone marrow toxicity and micronucleus formation on dose escalation (in words) (mouse reticulocytes): the acutely lethal dose was reached before there were any signs of bone marrow toxicity or micronucleus formation | HIV Log Kill (HIV-1; [3]): 1.4 log | HIV Log Kill (HIV-1; [4]): 3.8 log | HIV Log Kill (HIV-1; [5]): >4.5 log | HIV inactivation compared with AMT (in words) (HIV-1; cell-free HIV, 64 μM of compound or higher for compounds 2 and 3): significantly more active than AMT

Cc1oc2c(C)c3oc(=O)cc(C)c3cc2c1CN [AMT, 4′-Aminomethyl-4,5′,8-trimethylpsoralen, reference compound]
mutagenic response in the Ames assay (in words) [1]: showed frameshift mutagenicity at between 5 and 10 μg/plate in TA97a and TA98, at 5 μg/plate in TA1537 and at 1 μg/plate in TA1538; also recorded: no significant base-substitution mutations | revertant colonies per plate ([2]; TA1537 + S9, 0.1 μg/plate): 2 | revertant colonies per plate ([2]; TA1537 + S9, 0.5 μg/plate): 2 | revertant colonies per plate ([2]; TA1537 + S9, 1 μg/plate): 3 | revertant colonies per plate ([2]; TA1537 + S9, 5 μg/plate): 22 | revertant colonies per plate ([2]; TA1537 + S9, 10 μg/plate): 30 | revertant colonies per plate ([2]; TA1537 + S9, 50 μg/plate): 94 | revertant colonies per plate ([2]; TA1537 + S9, 100 μg/plate): 686 and 500 | revertant colonies per plate ([2]; TA1537 + S9, 250 μg/plate): 3738 | revertant colonies per plate ([2]; TA1537 − S9, 0.1 μg/plate): 0 | revertant colonies per plate ([2]; TA1537 − S9, 0.5 μg/plate): 3 | revertant colonies per plate ([2]; TA1537 − S9, 1 μg/plate): 5 | revertant colonies per plate ([2]; TA1537 − S9, 5 μg/plate): 44 | revertant colonies per plate ([2]; TA1537 − S9, 10 μg/plate): 52 | revertant colonies per plate ([2]; TA1537 − S9, 50 μg/plate): 2688 | revertant colonies per plate ([2]; TA1537 − S9, 250 μg/plate): 434 | HIV Log Kill (HIV-1; [3]): 1.4 log

Cc1oc2c(C)c3oc(=O)cc(C)c3cc2c1CNCCCCN [Compound 6, 4′-(6-amino-2-aza)hexyl-4,5′,8-trimethylpsoralen]
mutagenic response in the Ames assay (in words) [1]: no base substitution mutagenicity; also recorded: frameshift response in TA98 in the presence of S9 at concentrations of 250 μg/plate and above | revertant colonies per plate ([2]; TA1537 + S9, 100 μg/plate): 20 and 35 | GMP-140 expression, treated sample (PCD) against day 5 untreated control (in words) (p-selectin (GMP140)): little or no difference | PCE/RBC (%) (mouse reticulocytes; 30 mg/kg): 3.61 ± 0.12% | PCE/RBC (%) (mouse reticulocytes; 45 mg/kg): 3.79 ± 0.41% | bone marrow toxicity and micronucleus formation on dose escalation (in words) (mouse reticulocytes): the acutely lethal dose was reached before there were any signs of bone marrow toxicity or micronucleus formation | HIV Log Kill (HIV-1; [3]): 2.0 log | HIV Log Kill (HIV-1; [6]): 2.1 log | HIV Log Kill (HIV-1; [4]): 3.1 log | HIV Log Kill (HIV-1; [7]): 3.2 log | HIV Log Kill (HIV-1; [5]): >3.8 log | HIV Log Kill (HIV-1; [8]): >2.8 log

Cc1cc(=O)oc2c(C)c3oc(COCCN)c(C)c3cc12 [Compound 18, 5′-(4-amino-2-oxa)butyl-4,4′,8-trimethylpsoralen]
mutagenic response in the Ames assay (in words) [1]: only a weak response at high concentrations in the presence of S9 | revertant colonies per plate ([2]; TA1537 + S9, 10 μg/plate): 8 | revertant colonies per plate ([2]; TA1537 + S9, 50 μg/plate): 6 | revertant colonies per plate ([2]; TA1537 + S9, 100 μg/plate): 26 | revertant colonies per plate ([2]; TA1537 + S9, 200 μg/plate): 42 | revertant colonies per plate ([2]; TA1537 − S9, 10 μg/plate): 21 | revertant colonies per plate ([2]; TA1537 − S9, 50 μg/plate): 303 | revertant colonies per plate ([2]; TA1537 − S9, 100 μg/plate): 390 | revertant colonies per plate ([2]; TA1537 − S9, 200 μg/plate): 225 | GMP-140 expression, treated sample (PCD) against day 5 untreated control (in words) (p-selectin (GMP140)): notable increase above the control | PCE/RBC (%) (mouse reticulocytes; 3.75 mg/kg): 3.61 ± 1.14% | PCE/RBC (%) (mouse reticulocytes; 7.5 mg/kg): 3.59 ± 0.33% | PCE/RBC (%) (mouse reticulocytes; 20 mg/kg): 3.48 ± 0.79% | bone marrow toxicity and micronucleus formation on dose escalation (in words) (mouse reticulocytes): the acutely lethal dose was reached before there were any signs of bone marrow toxicity or micronucleus formation | HIV Log Kill (HIV-1; [6]): 1.0 log | HIV Log Kill (HIV-1; [7]): 1.0 log | HIV Log Kill (HIV-1; [8]): 3.1 log
